Test results reported in patent US10104891B2 (priority 2014, dated 2018).

What was measured:
Format in all cases: in vivo
Plasmopara viticola = experiment: Test 3: control effect against grape downy mildew; settings: control value vs untreated section; for pest or weed control at 4 µg/mL: Plasmopara viticola, 120 h
In short: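 Neomuscat grape seedlings were sprayed with compound at 4 ppm, diluted from a 10% wettable powder in Tween20 solution. One day later they were inoculated with Plasmopara viticola zoospores at 1.0×10^4 units/ml and held moist at 22° C. for 16 hr. Control value was derived from leaf lesion area at 5 days versus untreated leaves.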

[1] = test system: Pseudoperonospora cubensis; experiment: Test 2: control effect against cucumber downy mildew; settings: control value vs untreated section; for pest or weed control at 4 µg/mL: Pseudoperonospora cubensis, 120 h
In short: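 Cucumber (Sagami hanjiro) at 2-leaf stage sprayed with 4 ppm compound from 10% wettable powder in Tween20 (1/5000); inoculated next day with P. cubensis zoospores, 1.0×10^4 units/ml, 16 hr moist chamber at 22° C. Lesion area rate scored 5 days post-inoculation; control value = (1 − treated/untreated onset area rate)×100.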

Phytophthora infestans = experiment: whole plant or invertebrate; settings: for control value (Test 1): tomato late blight, control value vs untreated section; for pest or weed control at 4 µg/mL: Phytophthora infestans, in Solanum lycopersicum, 96 h, read-out: control value (Test 1)

| Structure (SMILES) | control value (Test 3) (Plasmopara viticola) | control value (Test 2) [1] | control value (Test 1) (Phytophthora infestans) | pest or weed control at 4 µg/mL (Plasmopara viticola) [%] | pest or weed control at 4 µg/mL [1] [%] | pest or weed control at 4 µg/mL (Phytophthora infestans) [%] |
| --- | --- | --- | --- | --- | --- | --- |
| COc1ccc(C)c2c1COC(c1csc(C3CCN(C(=O)Cn4nc(C(F)(F)F)cc4C(F)(F)F)CC3)n1)OC2 (stereo not drawn) [Compound 1-134] | 100 | 100 | 100 |  |  |  |
| COc1cccc2c1COC(c1csc(C3CCN(C(=O)Cn4nc(C(F)(F)F)cc4C)CC3)n1)OC2 (stereo not drawn) [Compound 1-135] | 100 | 100 | 100 |  |  |  |
| O=C(Cn1nc(C(F)F)cc1C(F)F)N1CCC(c2nc(C3OCc4cccc(OC(F)F)c4CO3)cs2)CC1 (stereo not drawn) [Compound 1-136] | 100 | 100 | 100 |  |  |  |
| O=C(Cn1nc(C(F)(F)F)cc1C(F)(F)F)N1CCC(c2nc(C3OCc4cccc(OC(F)F)c4CO3)cs2)CC1 (stereo not drawn) [Compound 1-137] | 100 | 100 | 100 |  |  |  |
| CS(=O)(=O)Oc1ccc2c(c1)COC(c1csc(C3CCN(C(=O)Cn4nc(C(F)F)cc4C(F)F)CC3)n1)OC2 (stereo not drawn) [Compound 1-138] | 100 | 100 | 100 |  |  |  |
| CS(=O)(=O)Oc1ccc2c(c1)COC(c1csc(C3CCN(C(=O)Cn4nc(C(F)(F)F)cc4C(F)(F)F)CC3)n1)OC2 (stereo not drawn) [Compound 1-139] | 100 | 100 | 100 |  |  |  |
| COc1cccc2c1COC(c1csc(C3CCN(C(=O)Cn4nc(C(F)F)cc4C(F)F)CC3)n1)OC2 (stereo not drawn) [Compound 1-141] | 100 | 100 | 100 |  |  |  |
| COc1ccc(F)c2c1COC(c1csc(C3CCN(C(=O)Cn4nc(C(F)(F)F)cc4C(F)(F)F)CC3)n1)OC2 (stereo not drawn) [Compound 1-142] | 100 | 100 | 100 |  |  |  |
| Cc1cc(C(F)(F)F)nn1CC(=O)N1CCC(c2nc(C3OCc4c(OC(F)F)ccc(OS(C)(=O)=O)c4CO3)cs2)CC1 (stereo not drawn) [Compound 1-143] | 100 | 100 | 100 |  |  |  |
| O=C(Cn1nc(C(F)F)cc1C(F)F)N1CCC(c2nc(C3OCc4cccc(C=NO)c4CO3)cs2)CC1 (stereo not drawn) [Compound 1-145] | 100 | 100 | 100 |  |  |  |
| CS(=O)(=O)Oc1ccc(OS(C)(=O)=O)c2c1COC(c1csc(C3CCN(C(=O)Cn4nc(C(F)F)cc4C(F)F)CC3)n1)OC2 [Compound 1-146] | 100 | 100 | 100 |  |  |  |
| CS(=O)(=O)Oc1ccc(OS(C)(=O)=O)c2c1COC(c1csc(C3CCN(C(=O)Cn4nc(C(F)(F)F)cc4C(F)(F)F)CC3)n1)OC2 [Compound 1-147, 4-[4-[6,9-bis(methylsulfonyloxy)-1,5-dihydro-3H-2,4-benzodioxepin-3-yl]-2-thiazolyl]-1-[2-[3,5-bis(trifluoromethyl)-1H-pyrazole-1-yl]acetyl]piperidine] |  |  |  | 70 | 90 | 90 |
| N#Cc1cccc2c1COC(c1csc(C3CCN(C(=O)Cn4nc(C(F)F)cc4C(F)F)CC3)n1)OC2 (stereo not drawn) [Compound 1-148] | 100 | 100 | 100 |  |  |  |
| O=C(Cn1nc(C(F)(F)F)cc1C(F)(F)F)N1CCC(c2nc(C3OCc4cccc(C=NO)c4CO3)cs2)CC1 (stereo not drawn) [Compound 1-149] | 100 | 100 | 100 |  |  |  |
| N#Cc1cccc2c1COC(c1csc(C3CCN(C(=O)Cn4nc(C(F)(F)F)cc4C(F)(F)F)CC3)n1)OC2 (stereo not drawn) [Compound 1-150] | 100 | 100 | 100 |  |  |  |
| CS(=O)(=O)Oc1cccc2c1COC(c1csc(N3CCN(C(=O)Cn4nc(C(F)F)cc4C(F)F)CC3)n1)OC2 (stereo not drawn) [Compound 1-151] | 100 | 100 | 100 |  |  |  |
| Cc1cc(C(F)(F)F)nn1C(C)C(=O)N1CCC(c2nc(C3OCc4cccc(OS(C)(=O)=O)c4CO3)cs2)CC1 (stereo not drawn) [Compound 1-152] | 100 | 100 | 100 |  |  |  |

| Structure (SMILES) | control value (Test 3) (Plasmopara viticola) | control value (Test 2) [1] | control value (Test 1) (Phytophthora infestans) | pest or weed control at 4 µg/mL (Plasmopara viticola) [%] | pest or weed control at 4 µg/mL [1] [%] | pest or weed control at 4 µg/mL (Phytophthora infestans) [%] |
| --- | --- | --- | --- | --- | --- | --- |
| Cc1cc(C(F)F)nn1CC(=O)N1CCC(c2nc(C3OCc4c(F)ccc(OS(C)(=O)=O)c4CO3)cs2)CC1 (stereo not drawn) [Compound 1-153] | 100 | 100 | 100 |  |  |  |
| Cc1cc(C(F)(F)F)nn1CC(=O)N1CCC(c2nc(C3(C)OCc4c(F)ccc(OS(C)(=O)=O)c4CO3)cs2)CC1 (stereo not drawn) [Compound 1-154] | 100 | 100 | 90 |  |  |  |
| Cc1cc(C(F)(F)F)nn1C(F)(F)C(=O)N1CCC(c2nc(C3OCc4c(F)ccc(OS(C)(=O)=O)c4CO3)cs2)CC1 (stereo not drawn) [Compound 1-155] | 100 | 100 | 100 |  |  |  |
| Cc1cc(C(F)(F)F)nn1C(C)C(=O)N1CCC(c2nc(C3OCc4c(F)ccc(OS(C)(=O)=O)c4CO3)cs2)CC1 (stereo not drawn) [Compound 1-156] | 100 | 100 | 100 |  |  |  |
| Cc1cc(C(F)(F)F)nn1CC(=O)N1CCC(c2nc(C3OCc4c(F)ccc(OS(C)(=O)=O)c4CO3)cs2)C(C)C1 (stereo not drawn) [Compound 1-157] | 100 | 100 | 100 |  |  |  |
| Cc1cc(C(F)(F)F)nn1CC(=O)N1CCC(c2nc(C3OCc4c(F)ccc(OS(C)(=O)=O)c4CO3)cs2)CC1C (stereo not drawn) [Compound 1-159] | 100 | 100 | 100 |  |  |  |
| CC(C(=O)N1CCC(c2nc(C3OCc4c(F)ccc(OS(C)(=O)=O)c4CO3)cs2)CC1)n1nc(C(F)F)cc1C(F)F (stereo not drawn) [Compound 1-160] | 100 | 100 | 100 |  |  |  |
| Cc1cc(C(F)(F)F)nn1CC(=O)N1CCC(c2nc(C3OCc4c(O)ccc(F)c4CO3)cs2)CC1 (stereo not drawn) [Compound 1-161] | 100 | 100 | 100 |  |  |  |
| Cc1ccc(C)c(CC(=O)N2CCC(c3nc(C4OCc5c(F)ccc(F)c5CO4)cs3)CC2)c1 [Compound 2-6] | 100 | 100 | 100 |  |  |  |
| Cc1ccc(C)c(CC(=O)N2CCC(c3nc(C4OCc5c(F)ccc(OS(C)(=O)=O)c5CO4)cs3)CC2)c1 (stereo not drawn) [Compound 2-8] | 100 | 100 | 100 |  |  |  |
| COc1ccc([N+](=O)[O-])c2c1COC(c1csc(C3CCN(C(=O)Cc4cc(C)ccc4C)CC3)n1)OC2 (stereo not drawn) [Compound 2-9] | 100 | 100 | 100 |  |  |  |
| Cc1ccc(C)c(CC(=O)N2CCC(c3nc(C4OCc5ccccc5CO4)cs3)CC2)c1 [Compound 2-11] | 100 | 100 | 100 |  |  |  |
| CCCCS(=O)(=O)Oc1cccc2c1COC(c1csc(C3CCN(C(=O)Cc4cc(C)ccc4C)CC3)n1)OC2 (stereo not drawn) [Compound 2-12, 4-[4-(6-butylsulfonyloxy-1,5-dihydro-3H-2,4-benzodioxepin-3-yl)-2-thiazolyl]-1-[2-(2,5-dimethylphenyl)acetyl]piperidine] |  |  |  | 80 | 90 | 80 |
| Cc1ccc(C)c(NC(=O)N2CCC(c3nc(C4OCc5c(F)ccc(OS(C)(=O)=O)c5CO4)cs3)CC2)c1 (stereo not drawn) [Compound 2-14] | 100 | 100 | 100 |  |  |  |
| Cc1ccc(C)c(NC(=O)N2CCC(c3nc(C4OCc5c(F)ccc(F)c5CO4)cs3)CC2)c1 [Compound 2-15] | 100 | 100 | 100 |  |  |  |
| CS(=O)(=O)Oc1ccc(F)c2c1COC(c1csc(C3CCN(C(=O)Cc4cc(Cl)ccc4Cl)CC3)n1)OC2 (stereo not drawn) [Compound 2-16] | 100 | 100 | 100 |  |  |  |
